Data on one compound can be found in BindingDB's records for doi:10.1021/np070259w (Institute of Plant Biochemistry, 2007).

Counter-ions that a name gives are not always drawn.

This assay in a line: Inhibition of equine BChE at 100 uM by Ellman's method.

`CNC(=O)Oc1ccc2c(c1)[C@]1(C)CCN(C)[C@@H]1N2C` [(3aS,8aR)-1,3a,8-trimethyl-1,2,3,3a,8,8a-hexahydropyrrolo[2,3-b]indol-5-yl methylcarbamate hydrochloride] gave an IC50 of 3.5 µM. This counts as single-digit micromolar.
